In ChEMBL document CHEMBL2440100, “Therapeutic potential of the peptide leucine arginine as a new nonplant bowman-birk-like serine protease inhibitor” (J Med Chem, 2013) one finds Ki data, which are given here for twelve compounds.

Where a SMILES comes first, the peptide text is derived from it. Bridges are numbered along the chain shown (N, C = ends).

A word on the Ki: it is a dissociation constant, usually derived from enzyme kinetics or from competition with a known ligand. Low readings indicate tighter binding, high ones weaker binding.

The nature of this experiment: Inhibition of bovine trypsin using benzoyl-L-arginine p-nitroanilide as substrate after 5 to 60 mins. Also noted: species or system Bos taurus.
As for `CC(C)C[C@H](N)C(=O)N[C@H](C(=O)N[C@@H](CCCNC(=N)N)C(=O)NCC(=O)N[C@H]1CSSC[C@@H](C(=O)N[C@@H](Cc2ccccc2)C(=O)N[C@H](C(=O)N[C@@H](CCCNC(=N)N)C(=O)O)C(C)C)NC(=O)[C@@H]2CCCN2C(=O)[C@H](C)NC(=O)[C@@H]2CCCN2C(=O)[C@@H]2CCCN2C(=O)[C@H](Cc2ccc(O)cc2)NC(=O)[C@H](CO)NC(=O)[C@H](CCCCN)NC(=O)[C@H]([C@@H](C)O)NC(=O)[C@H](Cc2c[nH]c3ccccc23)NC1=O)C(C)C` (H-LVRGCWTKSYPPAPCFVR-OH; disulfide 5-15), the affinity, expressed as Ki, was 0.4 µM.
With `CC(C)C[C@H](N)C(=O)N[C@H](C(=O)N[C@@H](CCCNC(=N)N)C(=O)NCC(=O)N[C@H]1CSSC[C@@H](C(=O)O)NC(=O)[C@@H]2CCCN2C(=O)[C@H](CCCCN)NC(=O)[C@@H]2CCCN2C(=O)[C@@H]2CCCN2C(=O)[C@H](Cc2ccc(O)cc2)NC(=O)[C@H](CO)NC(=O)[C@H](CCCCN)NC(=O)[C@H]([C@@H](C)O)NC(=O)[C@H](Cc2c[nH]c3ccccc23)NC1=O)C(C)C` (H-LVRGCWTKSYPPKPC-OH; disulfide 5-15) the figure was 0.322 µM; with `CC(C)C[C@H](N)C(=O)N[C@H](C(=O)N[C@@H](CCCNC(=N)N)C(=O)NCC(=O)N[C@H]1CSSC[C@@H](C(=O)N[C@@H](Cc2ccccc2)C(=O)N[C@H](C(=O)N[C@@H](CCCNC(=N)N)C(=O)O)C(C)C)NC(=O)[C@H](CCCCN)NC(=O)[C@@H]2CCCN2C(=O)[C@@H]2CCCN2C(=O)[C@H](Cc2ccc(O)cc2)NC(=O)[C@H](CO)NC(=O)[C@H](CCCCN)NC(=O)[C@H]([C@@H](C)O)NC1=O)C(C)C` (H-LVRGCTKSYPPKCFVR-OH; disulfide 5-13), 0.245 µM; with `CC(C)C[C@H](N)C(=O)N[C@H](C(=O)N[C@@H](CCCNC(=N)N)C(=O)NCC(=O)N[C@H]1CSSC[C@@H](C(=O)N[C@@H](Cc2ccccc2)C(=O)N[C@H](C(=O)N[C@@H](CCCNC(=N)N)C(=O)O)C(C)C)NC(=O)[C@@H]2CCCN2C(=O)[C@H](CCCCN)NC(=O)[C@@H]2CCCN2C(=O)[C@@H]2CCCN2C(=O)[C@H](Cc2ccc(O)cc2)NC(=O)[C@H](CO)NC(=O)[C@H](CCCCN)NC(=O)[C@H]([C@@H](C)O)NC(=O)[C@H](C)NC1=O)C(C)C` (H-LVRGCATKSYPPKPCFVR-OH; disulfide 5-15), 0.67 µM.
With `C[C@@H](O)[C@@H]1NC(=O)[C@H](Cc2c[nH]c3ccccc23)NC(=O)[C@@H](N)CSSC[C@@H](C(=O)O)NC(=O)[C@@H]2CCCN2C(=O)[C@H](CCCCN)NC(=O)[C@@H]2CCCN2C(=O)[C@@H]2CCCN2C(=O)[C@H](Cc2ccc(O)cc2)NC(=O)[C@H](CO)NC(=O)[C@H](CCCCN)NC1=O` the figure was 0.335 µM.
Take `CC(C)C[C@H](N)C(=O)N[C@H](C(=O)N[C@@H](CCCNC(=N)N)C(=O)NCC(=O)N[C@H]1CSSC[C@@H](C(=O)N[C@@H](Cc2ccccc2)C(=O)N[C@H](C(=O)N[C@@H](CCCNC(=N)N)C(=O)O)C(C)C)NC(=O)[C@H](C)NC(=O)[C@H](CCCCN)NC(=O)[C@@H]2CCCN2C(=O)[C@@H]2CCCN2C(=O)[C@H](Cc2ccc(O)cc2)NC(=O)[C@H](CO)NC(=O)[C@H](CCCCN)NC(=O)[C@H]([C@@H](C)O)NC(=O)[C@H](Cc2c[nH]c3ccccc23)NC1=O)C(C)C` (H-LVRGCWTKSYPPKACFVR-OH; disulfide 5-15): affinity was put at a Ki of 0.252 µM.
For the compound `CC(C)C[C@H](N)C(=O)N[C@H](C(=O)N[C@@H](CCCNC(=N)N)C(=O)NCC(=O)N[C@H]1CSSC[C@@H](C(=O)N[C@@H](Cc2ccccc2)C(=O)N[C@H](C(=O)N[C@@H](CCCNC(=N)N)C(=O)O)C(C)C)NC(=O)[C@@H]2CCCN2C(=O)[C@H](CCCCN)NC(=O)[C@@H]2CCCN2C(=O)[C@@H]2CCCN2C(=O)[C@H](Cc2ccc(O)cc2)NC(=O)[C@H](C)NC(=O)[C@H](CCCCN)NC(=O)[C@H]([C@@H](C)O)NC(=O)[C@H](Cc2c[nH]c3ccccc23)NC1=O)C(C)C` (H-LVRGCWTKAYPPKPCFVR-OH; disulfide 5-15), the Ki was 0.245 µM.
With `C[C@H](NC(=O)[C@@H](N)CO)C(=O)N1CCC[C@H]1C(=O)N[C@@H](CCCNC(=N)N)C(=O)NCC(=O)N[C@H]1CSSC[C@@H](C(=O)N[C@@H](CCCCN)C(=O)O)NC(=O)[C@@H]2CCCN2C(=O)[C@H](CCCCN)NC(=O)[C@@H]2CCCN2C(=O)[C@@H]2CCCN2C(=O)[C@H](Cc2ccc(O)cc2)NC(=O)[C@H](CO)NC(=O)[C@H](CCCCN)NC(=O)[C@H]([C@@H](C)O)NC(=O)[C@H](Cc2c[nH]c3ccccc23)NC1=O` (H-SAPRGCWTKSYPPKPCK-OH; disulfide 6-16) the figure was 0.129 µM; with `CC[C@H](C)[C@@H]1NC(=O)[C@@H]2CCCN2C(=O)[C@@H]2CCCN2C(=O)[C@H]([C@@H](C)CC)NC(=O)[C@H](CO)NC(=O)[C@H](CCCCN)NC(=O)[C@H]([C@@H](C)O)NC(=O)[C@@H](NC(=O)[C@H](CCCNC(=N)N)NC(=O)CN)CSSC[C@@H](C(=O)N[C@@H](Cc2ccccc2)C(=O)N2CCC[C@H]2C(=O)N[C@@H](CC(=O)O)C(=O)O)NC1=O`, 0.02 µM; with `CC(C)C[C@H](N)C(=O)N[C@H](C(=O)N[C@@H](CCCNC(=N)N)C(=O)NCC(=O)N[C@H]1CSSC[C@@H](C(=O)N[C@@H](Cc2ccccc2)C(=O)N[C@H](C(=O)N[C@@H](CCCNC(=N)N)C(=O)O)C(C)C)NC(=O)[C@@H]2CCCN2C(=O)[C@H](CCCCN)NC(=O)[C@@H]2CCCN2C(=O)[C@@H]2CCCN2C(=O)[C@H](C)NC(=O)[C@H](CO)NC(=O)[C@H](CCCCN)NC(=O)[C@H]([C@@H](C)O)NC(=O)[C@H](Cc2c[nH]c3ccccc23)NC1=O)C(C)C` (H-LVRGCWTKSAPPKPCFVR-OH; disulfide 5-15), 0.142 µM.
The result for `CC(C)C[C@H](N)C(=O)N[C@H](C(=O)N[C@@H](CCCNC(=N)N)C(=O)NCC(=O)N[C@H]1CSSC[C@@H](C(=O)N[C@@H](Cc2ccccc2)C(=O)N[C@H](C(=O)N[C@@H](CCCNC(=N)N)C(=O)O)C(C)C)NC(=O)[C@@H]2CCCN2C(=O)[C@H](CCCCN)NC(=O)[C@@H]2CCCN2C(=O)[C@@H]2CCCN2C(=O)[C@H](Cc2ccc(O)cc2)NC(=O)[C@H](CO)NC(=O)[C@H](CCCCN)NC(=O)[C@H](C)NC(=O)[C@H](Cc2c[nH]c3ccccc23)NC1=O)C(C)C` (H-LVRGCWAKSYPPKPCFVR-OH; disulfide 5-15) reads 1.11 µM; that for `CC(C)C[C@H](NC(=O)[C@H](C)NC(=O)CN)C(=O)N[C@@H](CCCNC(=N)N)C(=O)NCC(=O)N[C@H]1CSSC[C@@H](C(=O)N[C@@H](CCCCN)C(=O)O)NC(=O)[C@@H]2CCCN2C(=O)[C@H](CCCCN)NC(=O)[C@@H]2CCCN2C(=O)[C@@H]2CCCN2C(=O)[C@H](Cc2ccc(O)cc2)NC(=O)[C@H](CO)NC(=O)[C@H](CCCCN)NC(=O)[C@H]([C@@H](C)O)NC(=O)[C@H](Cc2c[nH]c3ccccc23)NC1=O` (H-GALRGCWTKSYPPKPCK-OH; disulfide 6-16), 0.116 µM.
